Data from US11192877B2, “3-(5-hydroxy-1-oxoisoindolin-2-yl)piperidine-2,6-dione derivatives and uses thereof” (Novartis AG, priority 2018, dated 2021).
Where a name gives a salt, the structure may show the parent alone. Read-outs that look alike come from different tables or passages of the source.

Target: IKZF2 (Helios) (Homo sapiens, UniProt Q96SW2+Q9UKS7)
Assay: Prolabel quantification of IKZF2 protein levels in 293GT cells
Assay type: cell-based
Settings: for IKZF2 % protein reduction at 10 µM: 24 h, read-out: IKZF2 % protein reduction at 10 μM, 24 h
[1] = Pro-label assay, 293GT cells, 10 μM

Sequence of IKZF2 (Helios) (Q9UKS7 whole entry): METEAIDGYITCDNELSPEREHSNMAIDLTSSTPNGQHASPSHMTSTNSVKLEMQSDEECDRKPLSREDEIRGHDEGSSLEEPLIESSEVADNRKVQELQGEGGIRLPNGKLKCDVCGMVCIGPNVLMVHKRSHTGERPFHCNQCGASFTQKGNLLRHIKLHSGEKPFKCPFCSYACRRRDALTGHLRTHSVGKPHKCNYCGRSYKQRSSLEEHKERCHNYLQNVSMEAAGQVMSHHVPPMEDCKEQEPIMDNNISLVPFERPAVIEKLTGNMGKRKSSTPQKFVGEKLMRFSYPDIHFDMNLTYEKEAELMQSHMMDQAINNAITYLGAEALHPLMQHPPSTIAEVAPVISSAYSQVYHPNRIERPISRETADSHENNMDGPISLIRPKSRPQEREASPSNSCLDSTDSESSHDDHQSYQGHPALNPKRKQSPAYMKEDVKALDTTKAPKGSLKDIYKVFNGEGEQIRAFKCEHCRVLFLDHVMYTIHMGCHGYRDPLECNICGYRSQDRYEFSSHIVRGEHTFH
Sequence of IKZF2 (Helios) (Q96SW2 whole entry): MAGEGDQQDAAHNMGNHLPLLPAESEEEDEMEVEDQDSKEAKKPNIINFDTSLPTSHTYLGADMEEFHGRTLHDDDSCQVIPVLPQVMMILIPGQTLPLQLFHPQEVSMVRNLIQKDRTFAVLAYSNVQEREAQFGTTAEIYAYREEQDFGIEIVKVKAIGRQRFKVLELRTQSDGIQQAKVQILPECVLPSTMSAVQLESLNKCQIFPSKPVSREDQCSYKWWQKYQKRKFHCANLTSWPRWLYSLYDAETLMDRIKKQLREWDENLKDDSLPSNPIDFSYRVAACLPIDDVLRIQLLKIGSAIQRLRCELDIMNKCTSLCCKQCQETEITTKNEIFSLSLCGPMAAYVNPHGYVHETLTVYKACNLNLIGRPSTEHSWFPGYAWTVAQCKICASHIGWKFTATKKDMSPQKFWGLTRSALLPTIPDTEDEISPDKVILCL
Sequence of IKZF2 (Helios) (Q16531 whole entry partner): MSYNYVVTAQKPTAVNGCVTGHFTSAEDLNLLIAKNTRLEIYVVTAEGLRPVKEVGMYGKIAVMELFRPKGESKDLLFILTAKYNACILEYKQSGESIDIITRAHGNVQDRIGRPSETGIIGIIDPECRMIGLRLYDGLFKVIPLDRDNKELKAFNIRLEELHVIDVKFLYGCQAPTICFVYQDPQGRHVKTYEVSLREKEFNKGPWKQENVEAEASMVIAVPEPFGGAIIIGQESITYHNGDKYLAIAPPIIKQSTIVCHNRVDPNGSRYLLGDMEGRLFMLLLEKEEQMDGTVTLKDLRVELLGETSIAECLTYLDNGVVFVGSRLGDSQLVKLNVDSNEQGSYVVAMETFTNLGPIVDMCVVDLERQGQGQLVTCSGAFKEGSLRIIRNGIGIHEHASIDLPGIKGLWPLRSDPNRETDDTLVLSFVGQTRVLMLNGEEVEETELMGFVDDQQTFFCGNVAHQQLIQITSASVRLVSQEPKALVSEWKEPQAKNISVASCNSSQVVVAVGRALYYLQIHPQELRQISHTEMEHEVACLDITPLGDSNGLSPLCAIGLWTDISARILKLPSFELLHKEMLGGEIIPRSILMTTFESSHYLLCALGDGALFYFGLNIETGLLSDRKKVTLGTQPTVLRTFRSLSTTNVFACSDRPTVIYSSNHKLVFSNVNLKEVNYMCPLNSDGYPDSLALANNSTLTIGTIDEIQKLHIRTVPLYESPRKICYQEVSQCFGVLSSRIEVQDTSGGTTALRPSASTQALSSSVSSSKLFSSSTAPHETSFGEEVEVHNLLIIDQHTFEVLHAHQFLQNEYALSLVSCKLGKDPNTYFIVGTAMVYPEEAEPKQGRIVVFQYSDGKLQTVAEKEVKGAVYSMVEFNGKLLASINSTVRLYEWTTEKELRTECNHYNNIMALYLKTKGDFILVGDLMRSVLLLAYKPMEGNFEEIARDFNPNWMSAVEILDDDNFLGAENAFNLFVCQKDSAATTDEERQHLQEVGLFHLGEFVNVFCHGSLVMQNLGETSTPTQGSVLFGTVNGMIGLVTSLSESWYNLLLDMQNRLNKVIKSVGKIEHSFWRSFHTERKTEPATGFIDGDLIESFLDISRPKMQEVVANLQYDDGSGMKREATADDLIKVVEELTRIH

Compound | IKZF2 % protein reduction at 10 µM [1] [%] | also measured
3-(1-oxo-5-(((1S,2S)-2-phenoxycyclohexyl)oxy)isoindolin-2-yl)piperidine-2,6-dione and 3-(1-oxo-5-(((1R,2R)-2-phenoxycyclohexyl)oxy)isoindolin-2-yl)piperidine-2,6-dione [I-19] | – | IKZF2 % protein reduction at 10 μM, 24 h [1]: 10%
CCN(CC)C1CC(C)(C)CC1Oc1ccc2c(c1)CN(C1CCC(=O)NC1=O)C2=O (mixture of isomers) [I-172, Mixture of 3-(5-(((1S,2S)-2-(diethylamino)-4,4-dimethylcyclopentyl)oxy)-1-oxoisoindolin-2-yl)piperidine-2,6-dione and 3-(5-(((1R,2R)-2-(diethylamino)-4,4-dimethylcyclopentyl)oxy)-1-oxoisoindolin-2-yl)piperidine-2,6-dione] | 58 | –
CN1CC[C@H]2CC[C@H](Oc3ccc4c(c3)CN(C3CCC(=O)NC3=O)C4=O)[C@H]21 (relative stereo) [I-3, 3-(5-(((3aR*,6S*,6aS*)-1-methyloctahydrocyclopenta[b]pyrrol-6-yl)oxy)-1-oxoisoindolin-2-yl)piperidine-2,6-dione] | 40 | –
O=C1CCC(N2Cc3cc(O[C@@H]4CCCC[C@@H]4O)ccc3C2=O)C(=O)N1 (relative stereo) [I-37, 3-(5-(((1R*, 2S*)-2-hydroxycyclohexyl)oxy)-1-oxoisoindolin-2-yl)piperidine-2,6-dione] | 0 | –
O=C1CCC(N2Cc3cc(O[C@H]4CC[C@@H]4NCc4ccccc4)ccc3C2=O)C(=O)N1 (single isomer, unassigned) [I-44] | 42 | –
CC1(C#N)CC(CN[C@H]2CCCC[C@@H]2Oc2ccc3c(c2)CN(C2CCC(=O)NC2=O)C3=O)C1 (single isomer, unassigned) [I-94] | 84 | –
COC1CC(CNC2CCCCC2Oc2ccc3c(c2)CN(C2CCC(=O)NC2=O)C3=O)C1 (single isomer, unassigned) [I-99] | 86 | –
COC1CC(CNC2CCCCC2Oc2ccc3c(c2)CN(C2CCC(=O)NC2=O)C3=O)C1 (single isomer, unassigned) [I-100] | – | IKZF2 % protein reduction at 10 μM, 24 h [1]: 86%
CO[C@@H]1CCC[C@H]1N[C@H]1CCCC[C@@H]1Oc1ccc2c(c1)CN(C1CCC(=O)NC1=O)C2=O (single isomer, unassigned) [I-118] | 67 | –
CO[C@H]1CCC[C@@H]1N[C@H]1CCCC[C@@H]1Oc1ccc2c(c1)CN(C1CCC(=O)NC1=O)C2=O (single isomer, unassigned) [I-119] | 59 | –
O=C1CCC(N2Cc3cc(OC4CCCCC4N4CCC(F)(F)C4)ccc3C2=O)C(=O)N1 (single isomer, unassigned) [I-134, 3-(5-((2-(3,3-difluoropyrrolidin-1-yl)cyclohexyl)oxy)-1-oxoisoindolin-2-yl)piperidine-2,6-dione] | 56 | –
CCN(CC1CC(C)(C#N)C1)C1CCCC1Oc1ccc2c(c1)CN(C1CCC(=O)NC1=O)C2=O (single isomer, unassigned) [I-164] | 71 | –
CCN(CC1CC(C)(C#N)C1)C1CCCC1Oc1ccc2c(c1)CN(C1CCC(=O)NC1=O)C2=O (single isomer, unassigned) [I-165] | – | IKZF2 % protein reduction at 10 μM, 24 h [1]: 72%
CC1(C)CCCN([C@H]2CCC[C@@H]2Oc2ccc3c(c2)CN(C2CCC(=O)NC2=O)C3=O)C1 (single isomer, unassigned) [I-168] | 83 | –
CC1(C)CCCN([C@@H]2CCC[C@H]2Oc2ccc3c(c2)CN(C2CCC(=O)NC2=O)C3=O)C1 (single isomer, unassigned) [I-169] | 2 | –
O=C1CCC(N2Cc3cc(OC4CCCC4N4CCC5(CCOC5)CC4)ccc3C2=O)C(=O)N1 (single isomer, unassigned) [I-176, 3-(5-((2-(2-oxa-8-azaspiro[4.5]decan-8-yl)cyclopentyl)oxy)-1-oxoisoindolin-2-yl)piperidine-2,6-dione] | 89 | –
O=C1CCC(N2Cc3cc(OC4CCCC4N4CCCC5(CCC5)C4)ccc3C2=O)C(=O)N1 (single isomer, unassigned) [I-179, 3-(5-((2-(6-azaspiro[3.5]nonan-6-yl)cyclopentyl)oxy)-1-oxoisoindolin-2-yl)piperidine-2,6-dione] | 85 | –
O=C1CCC(N2Cc3cc(OC4CCCC4N4CCC5(CCOCC5)C4)ccc3C2=O)C(=O)N1 (single isomer, unassigned) [I-183, 3-(5-((2-(8-oxa-2-azaspiro[4.5]decan-2-yl)cyclopentyl)oxy)-1-oxoisoindolin-2-yl)piperidine-2,6-dione] | 84 | –
CO[C@@H]1CCN(C2CCCC2Oc2ccc3c(c2)CN(C2CCC(=O)NC2=O)C3=O)C1 (single isomer, unassigned) [I-192] | 77 | –

Compound | IKZF2 % protein reduction at 10 µM [1] [%] | also measured
CO[C@H]1CCN(C2CCCC2Oc2ccc3c(c2)CN(C2CCC(=O)NC2=O)C3=O)C1 (single isomer, unassigned) [I-193] | 79 | –
O=C1CCC(N2Cc3cc(O[C@H]4CCC[C@@H]4N4CCSCC4)ccc3C2=O)C(=O)N1 (stereo in doubt) [I-184, 3-(1-oxo-5-(((1S,2S)-2-thiomorpholinocyclopentyl)oxy)isoindolin-2-yl)piperidine-2,6-dione] | – | IKZF2 % protein reduction at 10 µM: 38%
O=C1CCC(N2Cc3cc(O[C@H]4CCC[C@@H]4N4CCCOCC4)ccc3C2=O)C(=O)N1 (stereo in doubt) [I-185, 3-(5-(((1S,2S)-2-(1,4-oxazepan-4-yl)cyclopentyl)oxy)-1-oxoisoindolin-2-yl)piperidine-2,6-dione] | 66 | –
N[C@H]1CCC[C@@H]1Oc1ccc2c(c1)CN(C1CCC(=O)NC1=O)C2=O (some centres unmarked) [Cmpd I-12] | 65 | –
CCN(CC(F)F)[C@H]1CCC[C@@H]1Oc1ccc2c(c1)CN(C1CCC(=O)NC1=O)C2=O (stereo partly drawn) [I-1, 3-(5-(((1S,2S)-2-((2,2-difluoroethyl)(ethyl)amino)cyclopentyl)oxy)-1-oxoisoindolin-2-yl)piperidine-2,6-dione] | 10 | –
O=C1CCC(N2Cc3cc(O[C@H]4CCCC[C@H]4NCc4ccccc4)ccc3C2=O)C(=O)N1 (stereo partly drawn) [I-2, 3-(5-(((1S,2R)-2-(benzylamino)cyclohexyl)oxy)-1-oxoisoindolin-2-yl)piperidine-2,6-dione] | 10 | –
CO[C@H]1CCCC[C@@H]1Oc1ccc2c(c1)CN(C1CCC(=O)NC1=O)C2=O (stereo partly drawn) [I-4, 3-(5-(((1S,2S)-2-methoxycyclohexyl)oxy)-1-oxoisoindolin-2-yl)piperidine-2,6-dione] | 25 | –
O=C1CCC(N2Cc3cc(O[C@H]4CCC[C@@H]4N4CC(O)C4)ccc3C2=O)C(=O)N1 (stereo partly drawn) [I-5, 3-(5-(((1S,2S)-2-(3-hydroxyazetidin-1-yl)cyclopentyl)oxy)-1-oxoisoindolin-2-yl)piperidine-2,6-dione] | 60 | –
O=C1CCC(N2Cc3cc(O[C@@H]4CCC[C@H]4O)ccc3C2=O)C(=O)N1 (stereo partly drawn) [I-6, 3-(5-(((1R,2R)-2-hydroxycyclopentyl)oxy)-1-oxoisoindolin-2-yl)piperidine-2,6-dione] | 5 | –
CC(C)CN[C@H]1CCCC[C@@H]1Oc1ccc2c(c1)CN(C1CCC(=O)NC1=O)C2=O (stereo partly drawn) [I-7, 3-(5-(((1S,2S)-2-(isobutylamino)cyclohexyl)oxy)-1-oxoisoindolin-2-yl)piperidine-2,6-dione] | 85 | –
O=C1CCC(N2Cc3cc(O[C@H]4CCC[C@@H]4N4CCC(F)(F)CC4)ccc3C2=O)C(=O)N1 (stereo partly drawn) [I-8, 3-(5-(((1S,2S)-2-(4,4-difluoropiperidin-1-yl)cyclopentyl)oxy)-1-oxoisoindolin-2-yl)piperidine-2,6-dione] | 50 | –
O=C1CCC(N2Cc3cc(O[C@H]4CCC[C@@H]4OCc4ccccc4)ccc3C2=O)C(=O)N1 (stereo partly drawn) [I-9, 3-(5-(((1S,2S)-2-(benzyloxy)cyclopentyl)oxy)-1-oxoisoindolin-2-yl)piperidine-2,6-dione] | 0 | –
CCN(CC)[C@@H]1CCC[C@@H]1Oc1ccc2c(c1)CN(C1CCC(=O)NC1=O)C2=O (stereo partly drawn) [I-10, 3-(5-(((1S,2R)-2-(diethylamino)cyclopentyl)oxy)-1-oxoisoindolin-2-yl)piperidine-2,6-dione] | 0 | –
O=C1CCC(N2Cc3cc(O[C@H]4CCCC[C@@H]4NCC4(C(F)(F)F)CC4)ccc3C2=O)C(=O)N1 (stereo partly drawn) [I-11, 3-(1-oxo-5-(((1S,2S)-2-(((1-(trifluoromethyl)cyclopropyl)methyl)amino)cyclohexyl)oxy)isoindolin-2-yl)piperidine-2,6-dione] | 75 | –
CCN(CC)[C@H]1CCC[C@@H]1Oc1ccc2c(c1)CN(C1CCC(=O)NC1=O)C2=O (stereo partly drawn) [I-13, 3-(5-(((1S,2S)-2-(diethylamino)cyclopentyl)oxy)-1-oxoisoindolin-2-yl)piperidine-2,6-dione] | 85 | –
CCN(CC)[C@H]1CCCC[C@@H]1Oc1ccc2c(c1)CN(C1CCC(=O)NC1=O)C2=O (stereo partly drawn) [I-14, 3-(5-(((1S,2S)-2-(diethylamino)cyclohexyl)oxy)-1-oxoisoindolin-2-yl)piperidine-2,6-dione] | 60 | –
N[C@H]1CCCC[C@@H]1Oc1ccc2c(c1)CN(C1CCC(=O)NC1=O)C2=O (stereo partly drawn) [I-15, 3-(5-(((1S,2S)-2-aminocyclohexyl)oxy)-1-oxoisoindolin-2-yl)piperidine-2,6-dione hydrochloride] | – | IKZF2 % protein reduction at 10 µM: 50%
O=C1CCC(N2Cc3cc(O[C@H]4CCC[C@@H]4N4CC5CCC(C5)C4)ccc3C2=O)C(=O)N1 (stereo partly drawn) [I-16, 3-(5-(((1S,2S)-2-(3-azabicyclo[3.2.1]octan-3-yl)cyclopentyl)oxy)-1-oxoisoindolin-2-yl)piperidine-2,6-dione] | 85 | –
O=C1CCC(N2Cc3cc(O[C@H]4CCC[C@@H]4N4CCC5(CC4)OCCO5)ccc3C2=O)C(=O)N1 (stereo partly drawn) [I-17, 3-(5-(((1S,2S)-2-(1,4-dioxa-8-azaspiro[4.5]decan-8-yl)cyclopentyl)oxy)-1-oxoisoindolin-2-yl)piperidine-2,6-dione] | 80 | –
